The supplement of paper PMC10307832

What was measured:
Assay in all cases: relative viability (nuclei count vs DMSO), 5 days (fraction); higher = more cells survive
RU-SKI 43 + Lapatinib = compound: CC[C@@H](C)CNCC(=O)N1CCC2=C([C@@H]1COC3=CC=CC(=C3)C)C=CS2 [RU-SKI 43] + CS(=O)(=O)CCNCc1ccc(-c2ccc3ncnc(Nc4ccc(OCc5cccc(F)c5)c(Cl)c4)c3c2)o1 [Lapatinib] (partner 2 µM)
How it was run: (§1)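 Lung cancer cell lines were seeded in 1536-well plates and dosed by pin tool the next day, with either a single drug or a fixed anchor-drug dose combined with five library-drug doses (not always all listed) spaced in √10 steps. Five days later, one step fixed the cells and stained their nuclei (final 0.05% Triton X-100, 1% formaldehyde, 1 ug/ml Hoechst), and nuclei were counted on 4× images. Relative viability is the nuclei count in treated wells divided by the count in vehicle wells, and each value is the median of duplicate plates.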

MK-8033 + OSI-027 = compound: Cn1cc(-c2cnc3ccc4ccc(CS(=O)(=O)NCc5ccccn5)cc4c(=O)c3c2)cn1 [MK-8033] + COc1cccc2cc(-c3nc([C@H]4CC[C@H](C(=O)O)CC4)n4ncnc(N)c34)[nH]c12 [OSI-027] (partner 0.5 µM)
How it was run: as §1

Irinotecan + Navitoclax = compound: CCc1c2c(nc3ccc(OC(=O)N4CCC(N5CCCCC5)CC4)cc13)-c1cc3c(c(=O)n1C2)COC(=O)[C@]3(O)CC [Irinotecan] + CC1(C)CCC(c2ccc(Cl)cc2)=C(CN2CCN(c3ccc(C(=O)NS(=O)(=O)c4ccc(N[C@H](CCN5CCOCC5)CSc5ccccc5)c(S(=O)(=O)C(F)(F)F)c4)cc3)CC2)C1 [Navitoclax] (partner 0.5 µM)
How it was run: as §1

RU-SKI 43 + Luminespib = compound: CC[C@@H](C)CNCC(=O)N1CCC2=C([C@@H]1COC3=CC=CC(=C3)C)C=CS2 [RU-SKI 43] + CCNC(=O)c1noc(-c2cc(C(C)C)c(O)cc2O)c1-c1ccc(CN2CCOCC2)cc1 [Luminespib] (partner 0.01 µM)
How it was run: as §1

Cell Line	relative viability (RU-SKI 43 + Lapatinib; first compound 0.1 µM)	relative viability (RU-SKI 43 + Lapatinib; first compound 0.3162 µM)	relative viability (RU-SKI 43 + Lapatinib; first compound 1 µM)	relative viability (RU-SKI 43 + Lapatinib; first compound 3.162 µM)	relative viability (RU-SKI 43 + Lapatinib; first compound 10 µM)	relative viability (MK-8033 + OSI-027; first compound 0.02 µM)	relative viability (MK-8033 + OSI-027; first compound 0.2 µM)	relative viability (MK-8033 + OSI-027; first compound 0.6325 µM)	relative viability (MK-8033 + OSI-027; first compound 2 µM)	relative viability (Irinotecan + Navitoclax; first compound 0.6325 µM)	relative viability (Irinotecan + Navitoclax; first compound 2 µM)	relative viability (Irinotecan + Navitoclax; first compound 6.325 µM)	relative viability (Irinotecan + Navitoclax; first compound 20 µM)	relative viability (RU-SKI 43 + Luminespib; first compound 0.1 µM)	relative viability (RU-SKI 43 + Luminespib; first compound 0.3162 µM)	relative viability (RU-SKI 43 + Luminespib; first compound 1 µM)	relative viability (RU-SKI 43 + Luminespib; first compound 3.162 µM)	relative viability (RU-SKI 43 + Luminespib; first compound 10 µM)	relative viability (MK-8033 + OSI-027; first compound 0.06325 µM)
HCC-78	0.843	0.626	1.24	0.513	0.369	0.352	0.329	0.34	0.398	0.75	0.525	0.202	0.191						
NCI-H441						0.653	0.698	0.788	0.469	0.206	0.383	0.304	0.463	0.285	0.324	0.436	0.316	0.375	0.597
NCI-H1299	0.965	1.03	1.05	0.941	0.95					0.886	0.845	0.431	0.303						
LU99A	0.839	1.14	0.968	0.956	0.925	0.315	0.299	0.298	0.307	0.188	0.231	0.195	0.242	0.195	0.24	0.211	0.259	0.192	0.251
NCI-H1651	0.846	0.964	0.98	0.974	0.764	0.735	0.757	0.646	0.699	0.763	0.544	0.199	0.168	0.697	0.9	0.915	0.807	0.658	0.541
HARA	0.816	0.832	0.771	0.705	0.76	0.569	0.487	0.429	0.418	0.658	0.106	0.123	0.111	0.687	0.765	0.918	0.974	0.672	0.265
RERF-LC-KJ	0.872	0.892	0.853	0.959	0.825	0.554	0.531	0.521	0.509	0.936	1.18	0.52	0.504	1.25	1.01	1.44	1.3	1	0.535
LCLC-103H						0.412	0.437	0.448	0.509					0.934	1.16	1.1	1.1	0.971	0.469
SK-LU-1	0.849	1.02	0.931	0.834	0.929	0.347	0.315	0.4	0.371	0.225	0.334	0.296	0.263	0.225	0.215	0.202	0.227	0.215	0.352
Calu-6	1.28	1.43	1.08	1.1	0.982					0.78	0.431	0.212	0.0896						
NCI-H1648							0.261		0.25										0.261
NCI-H522						0.806	0.661	0.729	0.722					1.28	1.14	1.14	1.05	1.17	0.627
LOU-NH91	0.796	0.685	0.815	0.749	0.754	0.74	0.7	0.667	0.752	0.578	0.526	0.32	0.275	0.307	0.304	0.431	0.36	0.317	0.453
HCC-366	1.03	1.33	1.21	1.15	1.05	1.1	0.838	0.945	0.791	0.79	0.158	0.0415	0.0387						0.85
CAL-12T	0.661	0.759	0.551	0.562	0.619	0.551	0.519	0.695	0.536	1.32	1.43	0.491	0.38	0.207	0.364	0.179	0.19	0.363	0.655
PC-3 [JPC-3]	0.461	0.344	0.454	0.47	0.459	0.78	0.646	0.776	0.692	0.703	0.436	0.307	0.333	0.738	0.633	0.795	0.615	0.537	0.647
NCI-H2087	0.916	1.12	0.947	1.09	0.804	0.546	0.443	0.642	0.617	0.468	0.26	0.184	0.218	0.158	0.173	0.193	0.145	0.131	0.519
NCI-H1395	1.15	1.04	1.24	1.13	1.24	0.557	0.601	0.644	0.615		0.677	0.521	0.344	0.733	0.899	0.862	0.649	0.635	0.555

Cell Line	relative viability (RU-SKI 43 + Lapatinib; first compound 0.1 µM)	relative viability (RU-SKI 43 + Lapatinib; first compound 0.3162 µM)	relative viability (RU-SKI 43 + Lapatinib; first compound 1 µM)	relative viability (RU-SKI 43 + Lapatinib; first compound 3.162 µM)	relative viability (RU-SKI 43 + Lapatinib; first compound 10 µM)	relative viability (MK-8033 + OSI-027; first compound 0.02 µM)	relative viability (MK-8033 + OSI-027; first compound 0.2 µM)	relative viability (MK-8033 + OSI-027; first compound 0.6325 µM)	relative viability (MK-8033 + OSI-027; first compound 2 µM)	relative viability (Irinotecan + Navitoclax; first compound 0.6325 µM)	relative viability (Irinotecan + Navitoclax; first compound 2 µM)	relative viability (Irinotecan + Navitoclax; first compound 6.325 µM)	relative viability (Irinotecan + Navitoclax; first compound 20 µM)	relative viability (RU-SKI 43 + Luminespib; first compound 0.1 µM)	relative viability (RU-SKI 43 + Luminespib; first compound 0.3162 µM)	relative viability (RU-SKI 43 + Luminespib; first compound 1 µM)	relative viability (RU-SKI 43 + Luminespib; first compound 3.162 µM)	relative viability (RU-SKI 43 + Luminespib; first compound 10 µM)	relative viability (MK-8033 + OSI-027; first compound 0.06325 µM)
ABC-1	1.23	1.42	1.12	1.18	1.24	0.417	0.415	0.457	0.506					0.68	0.434	0.485	0.673	0.811	0.339
NCI-H2023	0.773	0.808	1.05	0.849	0.726	0.432	0.335	0.319	0.223	1	0.812	0.277	0.103	0.919	1	0.887	0.856	0.876	0.288
PC-14	0.362	0.362	0.414	0.335	0.239	0.835	0.828	0.773	0.73	0.987	0.876	0.196	0.147	0.146	0.143	0.126	0.157	0.159	0.742
ChaGo-K-1						0.51	0.528	0.552	0.511		0.784	0.407	0.33	0.661	0.566	0.723	0.645	0.516	0.536
NCI-H650	0.969	0.837	1.25		0.914	0.539	0.491	0.503	0.554					0.748	0.861	0.901	0.852	0.727	0.527
EBC-1	0.186	0.189	0.215	0.197	0.181					0.304	0.406	0.378	0.133						
NCI-H2228	1.05	1.3	1.45	1.29	0.891	0.692	0.576	0.559	0.552	0.875	0.529	0.405	0.51	0.178	0.15	0.177	0.149	0.199	0.562
NCI-H1703		1.86	1.11	1.16	0.637					1.16	1.45	0.514	0.105						
201T	1.1	0.997	1.06	1.05	1.01	0.767	0.683	0.675	0.817		1.12	0.729	0.451	1.06	1.06	1.04	1.06	1.03	0.703
NCI-H1915	1.02	1.22	1.13	1.03	0.993	0.649	0.62	0.65	0.596	0.318	0.18	0.151	0.115	0.837	1.44	1.02	0.869	0.895	0.559
NCI-H358	0.483	0.545	0.495	0.53	0.448	0.799	0.613	0.812	0.58					0.59	0.292	0.252	0.389	0.307	0.64
SW 900						0.597	0.515	0.448	0.597					0.196	0.188	0.195	0.169	0.151	0.437
A549	0.95	1.13	1.09	0.908	0.759					0.997	0.639	0.118	0.0499						
NCI-H1563	0.871	0.874	0.879	0.913	0.765	0.789	0.727	0.807	0.724					0.51	0.502	0.51	0.529	0.495	0.8
NCI-H1623						0.411	0.495	0.442	0.477					0.452	0.478	0.468	0.577	0.447	0.409
IA-LM	0.717	0.956	1.02	0.79	0.731					0.574	0.246	0.15	0.0454						
NCI-H2342						0.588	0.719	0.665	0.632					0.686	0.667	0.713	0.62	0.617	0.64
NCI-H661	0.465	0.525	0.511	0.434	0.421	0.727	0.687	0.699	0.668					0.942	1.03	0.947	0.932	0.898	0.656
